Reference: US12661353B2, “SPT5 inhibitors and uses thereof” (Yeda Research and Development Co. Ltd., priority 2020, dated 2026)

Assays:
[1] = target: T1, Rpb1 CC domain (His-Rpb1) (Homo sapiens, UniProt P24928); assay: Binding assay by intrinsic fluorescence of purified His-Rpb1; conditions: read-out: IC50, decrease of intrinsic fluorescence of Rpb1 (Pol II)
T1 construct: His tag; made in house; host or cells: E. coli; purified on nickel agarose beads
Experimental: Binding assay—In order to measure binding of the indicated compound to Spt5 and/or Pol II; Spt5-Spt4 or Rpb1 fused to a histidine (His) tag were expressed in E. coli (SEQ ID Nos: 2-3, 5-6 and 81) and purified on nickel agarose beads as described in Ashkenazi et al. 2016. The proteins were incubated for 10 minutes with increasing concentrations of the indicated compound in a black 384 wells microplate in a total volume of 20 μl. Binding was assessed by measuring the changes in the intrinsic fluorescence (280 nm) using Cytation™ 5 (BioTek).
Two identified compounds, SPI-21 and SPI-18, were further validated for their direct interaction with either Spt5 or Rpb1 CC domain. […] Using the purified proteins, fluorescence intensity measurements were performed in the presence of increasing concentrations of SPI-21 or SPI-18. This method analyzes binding by monitoring the changes in the intrinsic fluorescence of the proteins as a consequence of conformational changes. […]
Direct interaction with either the Spt5 or the Rpb1 CC domain of SPI-21 and SPI-18 was further validated. […] Using the purified proteins, fluorescence intensity measurements were performed in the presence of increasing concentrations of SPI-21 and SPI-18. This method analyzes binding by monitoring the changes in the intrinsic fluorescence of the proteins as a consequence of conformational changes. […]

[2] = system: replication-dependent histone genes; assay: Histone gene levels after 24 hours, cDNA with random hexamers, qPCR; assay type: cell-based, human
Experimental: A schematic illustration of a histone gene structure is shown on the top. For polyA+ RNA analysis, cDNA was prepared with a poly-dT oligonucleotide. In each analysis the levels were normalized to GAPDH; and the bars present the mean of 3±SEM independent experiments. * P<0.05 relative to DMSO (vehicle control). […] The data represent the means±SEMs of 3 independent experiments. The asterisks denote statistically significant differences relative to DMSO; according to Student's t tests (typically one-tailed, paired): *p<0.05; **p<0.01; ***p<0.005.
Since the RNA-seq following treatment with SPI-21 detects only polyadenylated transcripts and the treatment was effected for 2 hours, during which only a fraction of cells is in S-phase, an effect on histone genes was not found. Thus, to investigate further the regulation of histone genes by Spt5 using the identified SPIs, cells were treated for 24 hours with SPI-21 or SPI-18, to allow all cells to pass S-phase at least once. Following, mRNA was extracted and cDNA was prepared using random hexamers and the levels of 4 histone genes were determined. […] To this end, cDNA prepared by random hexamer and Poly-T the ratio between total and poly-A tailed histone genes was determined. […]

T1 sequence (P24928 8-370): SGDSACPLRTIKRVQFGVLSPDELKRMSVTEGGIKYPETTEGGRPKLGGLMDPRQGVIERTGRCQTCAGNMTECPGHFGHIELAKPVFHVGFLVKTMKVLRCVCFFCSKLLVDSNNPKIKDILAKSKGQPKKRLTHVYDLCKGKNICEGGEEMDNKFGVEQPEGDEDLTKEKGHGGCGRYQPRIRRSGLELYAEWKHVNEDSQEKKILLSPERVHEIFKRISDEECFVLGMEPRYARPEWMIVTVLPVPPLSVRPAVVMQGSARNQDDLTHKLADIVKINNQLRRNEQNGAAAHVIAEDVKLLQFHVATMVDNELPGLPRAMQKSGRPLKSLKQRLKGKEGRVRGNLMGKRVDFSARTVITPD

Structure (SMILES) | IC50 [1] | expression of the selected histone genes [2]
COc1ccc(C=CC(=O)c2cc(O)ccc2O)cc1 [SPI-21] | 23 µM | diminished expression of the selected histone genes
Nc1ccccc1SC(CC(=O)c1cccs1)c1cccs1 (stereo not shown) [SPI-18] | 76 µM | diminished expression of the selected histone genes
